According to patent publication US20010014680A1 (priority 1998, published 2001):
Counter-ions that a name gives are not always drawn.

Key:
[1] = biological target: T1, human 5HT1A receptor (Homo sapiens, UniProt P08908); experiment: 5-HT1A Receptor Intrinsic Activity Assay (cAMP); type: cell-based; conditions: reversal of forskolin (1 μM) stimulated cAMP in CHO cells stably transfected with human 5-HT1A receptor; RIA
T1 construct: expressed in transfected cells; host or cells: CHO cells, stably transfected
T1 sequence (P08908 1-422): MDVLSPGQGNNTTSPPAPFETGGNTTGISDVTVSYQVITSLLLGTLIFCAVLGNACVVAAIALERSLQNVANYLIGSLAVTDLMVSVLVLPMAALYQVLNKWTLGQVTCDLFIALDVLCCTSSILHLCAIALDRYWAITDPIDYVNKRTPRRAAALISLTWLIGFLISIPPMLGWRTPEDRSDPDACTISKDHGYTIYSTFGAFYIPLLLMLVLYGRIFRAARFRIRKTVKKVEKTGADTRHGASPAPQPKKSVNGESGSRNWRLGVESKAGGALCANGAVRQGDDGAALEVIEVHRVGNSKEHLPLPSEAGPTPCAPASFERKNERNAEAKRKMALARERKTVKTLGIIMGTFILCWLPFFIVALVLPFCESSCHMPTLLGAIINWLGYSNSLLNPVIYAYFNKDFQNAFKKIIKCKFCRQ
Protocol: 5-HT1A Receptor Intrinsic Activity Assay
The intrinsic activity of compounds of the present invention was established by testing the claimed compounds ability to reverse the stimulation of cyclic adenosinemonophosphate (cAMP) in CHO cells stably transfected with the human 5-HT1A receptor.
Stably transfected CHO cells were grown in DMEM containing 10% heat inactivated FBS and non-essential amino acids. The cells are plated at a density of […] per well in a 24 well plate and incubated for 2 days in a CO2 incubator. On the second day, the media is replaced with 0.5 mL treatment buffer (DMEM + 25 mM HEPES, 5 mM theophylline, 10 μM pargyline) and incubated for 10 minutes at 37° C. Wells are treated with forskolin (1 μM final concentration) followed immediately by the test compound (0.1 and 1 μM for initial screen) and incubated for an additional 10 minutes at 37° C. The reaction is terminated by removal of the media and addition of 0.5 mL ice cold assay buffer (supplied in the RIA kit). Plates are stored at −20° C. prior to assessment of cAMP formation by RIA. EC50 values are determined for the active test compounds. Compounds shown to have no agonist activities (Emax=0%) are further analyzed for their ability to reverse agonist induced activity. In separate experiments, 6 concentrations of antagonist are preincubated for 20 minutes prior to the addition of agonist and forskolin. Cells are harvested as described above. The cAMP kit is supplied by Amersham and the RIA is performed as per kit instructions, and calculations of IC50 performed by GraphPad Prism.

[2] = biological target: T1, human 5HT1A receptor; experiment: 5-HT1A Receptor Binding Assay ([3H] 8-OH-DPAT displacement); conditions: displacement of [3H] 8-OH-DPAT (1.5 nM) in CHO cells stably transfected with human 5HT1A receptor
Protocol: 5-HT1A Receptor Binding Assay
High affinity for the serotonin 5-HT1A receptor was established by testing the claimed compound's ability to displace [^3H] 8-OH-DPAT binding in CHO cells stably transfected with the human 5HT1A receptor. Stably transfected CHO cells are grown in DMEM containing 10% heat inactivated FBS and non-essential amino acids. Cells are scraped off the plate, transferred to centrifuge tubes, and washed twice by centrifugation (2000 rpm for 10 min., 4° C.) in buffer (50 mM Tris pH 7.5). The resulting pellets are aliquoted and placed at −80° C. On the day of assay, the cells are thawed on ice and resuspended in buffer. The binding assay is performed in a 96 well microtiter plate in a total volume of 250 μL. Non-specific binding is determined in the presence of […], final ligand concentration is 1.5 nM. Following a 30 minute incubation at room temperature, the reaction is terminated by the addition of ice cold buffer and rapid filtration through a GF/B filter presoaked for 30 minutes in 0.5% PEI. Compounds are initially tested in a single point assay to determine percent inhibition at […], and Ki values are determined for the active compounds.

Structure (SMILES) | melting point [°C] | Emax [1] [%] | Ki [2] [nM]
O=C(C1CCNCC1)N1CCN(c2cccc3[nH]ccc23)CC1 (as salt: HCl) [Example 11, [4-(1H-Indol-4-yl)-piperazin-1-yl]-piperidin-4-yl-methanone] | > 240 | – | –
COc1ccccc1N1CCN(CC2CCNCC2)CC1 [Example 1, 1-(2-Methoxy-phenyl)-4-piperidin-4-ylmethyl-piperazine] | – | 0 | –
COc1ccccc1N1CCN(CC2CCN(CC3CCCCC3)CC2)CC1 [Example 3] | – | 89 | 8.4
COc1ccccc1N1CCN(CC2CCCNC2)CC1 (centres unmarked) [Example 6, 1-(2-Methoxy-phenyl)-4-piperidin-3-ylmethyl-piperazine] | – | 0 | 2
COc1ccccc1N1CCN(CC2CCCN(Cc3ccccc3)C2)CC1 (centres unmarked) [Example 9, 1-(1-Benzyl-piperidin-3-ylmethyl)-4-(2-methoxy-phenyl)-piperazine] | – | 79 | 14
